Measurements from patent publication US11434205B2, “Substituted imidazole carboxylate derivatives and the use thereof” (priority 2018, dated 2022).
Where two headings read alike, the source gives them in different places.

Key:
[1] = system: rats; assay: Loss of righting reflexes (LORR) assay in rats, ED50 by up and down method; type: in vivo, rat; conditions: tail vein, class symbols; for ED50: Rattus norvegicus
In short: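 Adult male Sprague-Dawley rats (250-300 g) dosed i.v. via tail vein at 0.1 mL/s. Anesthesia scored as loss of righting reflex lasting >30 s; ED50 derived by up-and-down method.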

[2] = system: rats
Protocol: Adult male Sprague-Dawley rats (250-300 g) were selected for the experiment. […] The anesthesia effects of the compounds were assessed in rats using a LORR assay and a period >30 s was considered as an indicator of general anesthesia. Then the up and down method was used to determine 50% effective dose (ED50). The drugs were administered through the tail vein of rats in a volume of 0.6 mL and at a rate of 0.1 mL/s.

[3] = system: rats; assay: Pharmacological characteristics at equivalent doses (2×ED50) in rats; conditions: 2×ED50, tail vein; for Adverse reactions: Red urine (incidence): DMSO solution (DMSO alone 10/10); for Onset time: time of LORR; for Adverse reactions: Tremor (incidence): animals affected/animals
In short: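 Adult male Sprague-Dawley rats (250-300 g, n=8) received each drug at twice its ED50 via tail vein (0.6 mL at 0.1 mL/s). Onset of anesthesia taken as time to LORR.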

[4] = system: secretion of corticosterone, H295R cell line; assay: cells; type: cell-based; conditions: for EC50: read-out: EC50 (Corticosterone)
Protocol: (§1) The Effects of the Compounds on Adrenocortical Function In Vitro Test
(§2) Then secretion of the cortisol and corticosterone in the supernatant, was measured using HPLC-MS/MS method to determine whether the compounds of the present invention had adrenotoxic potential.

[5] = system: secretion of cortisol, H295R cell line; assay: cells; type: cell-based; conditions: for EC50: read-out: EC50 (Cortisol)
Protocol: as §1, §2

[6] = system: rats; type: in vivo, rat; conditions: rats of the MAP/HR figures, 2×ED50, tail vein; same value in min
In short: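 Rats implanted with telemetry (left ventricular and abdominal aortic catheters, ECG leads) at least one week before recording; compounds given via lateral tail-vein catheter. MAP and HR sampled every 15 s for 30 min before and after dosing to judge hemodynamic stability.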

[7] = system: rats; conditions: for Adverse reactions: Tremor (incidence): continuous infusion 2×MIR
Protocol: Pharmacological Effects of the Compounds on Continuous Infusion in Rats
Adult male Sprague-Dawley rats with body weight ranging from 250 to 300 gm were selected for continuous infusion test. […] Time to recovery of righting reflex from stopping infusion, and time to fully awake from stopping infusion were recorded.

[8] = system: rats; type: in vivo, rat; conditions: rats of the MAP/HR figures, 2×ED50, tail vein
[9] = H295R cell line, 0.1-10000 nM, HPLC-MS/MS, Table D3
[10] = continuous tail vein infusion at 2×MIR, LORR maintained 1 hour, Table D4
[11] = emulsion, continuous infusion at 2×MIR
[12] = continuous tail vein infusion at 2×MIR, LORR maintained 1 hour, Table C4
[13] = H295R cell line, 0.1-10000 nM, HPLC-MS/MS, Table E3
[14] = continuous tail vein infusion at 2×MIR, LORR maintained 1 hour, Table E4

SMILES | ED50 [1] [mg/kg] | Approximate therapeutic index [2] | Minimal lethal dose [2] [mg/kg] | Righting reflex duration [3] [min] | Adverse reactions: Red urine (incidence) [3] | Onset time [3] [min] | Corticosterone as an indicator to determine the presence of inhibition [4, 9] | EC50 ([4]; Homo sapiens, NCI-H295R) [nM] | Cortisol as an indicator to determine the presence of inhibition [5, 9] | EC50 ([5]; Homo sapiens, NCI-H295R) [nM] | recovery time of the test animals' righting reflex [6] [min] | Onset time [7, 10] [min] | Recovery time after stopping infusion [7, 10] [min] | Types and incidence of adverse reactions [7, 10] | recovery time of the test animals' righting reflex [8] [s] | further results
C/C=C/C1(OC(=O)c2cncn2[C@H](C)c2ccccc2)COC1 [Compound D42] | 0.5 to 1 | >12 | >9 | 2.50 ± 1.18 | Red urine (8/8) | 0.13 ± 0.02 | 0 | > 1000 | 0 | > 1000 | 5.38 | 3 to 4 | 12 to 16 | Tremor (6/6) | 323 | 
C#CC(C)(C)OC(=O)c1cncn1[C@H](C)c1ccccc1 [Compound D15] | 0.1 to 0.5 | >10 | >4 | 2.25 ± 0.79 | (7/8) | 0.21 ± 0.10 | 0 | > 10000 | 0 | > 10000 | 3.75 | 2 to 3 | 10 to 11 | Tremor (3/6) | 225 | Adverse reactions: Tremor (incidence) [3]: Tremor (2/8), Red urine
CC(OC(=O)c1cncn1[C@H](C)c1ccccc1)C1CC1 (stereo partly shown) [Compound A16] | 0.1 to 0.5 | >33 | >10 | 2.63 ± 1.20 | 8/8 | 0.16 ± 0.07 |  | > 1000 |  | > 1000 | 2.78 |  |  |  | 167 | Adverse reactions: Tremor (incidence) [3]: 2/8; Corticosterone as an indicator to determine the presence of inhibition ([4]; H295R, Table A3): 0; Cortisol as an indicator to determine the presence of inhibition ([5]; H295R, Table A3): 0; Recovery time after stopping infusion ([7]; after 1 hour infusion at 2×MIR): 12 to 14 min; Adverse reactions: Tremor (incidence) [7]: Tremor (3/6); Onset time [7, 11]: 2 to 3 min
CC(=O)CCOC(=O)c1cncn1[C@H](C)c1ccccc1 [Compound C7] | 0.1 to 0.5 | >10 | >4 | 1.68 ± 0.88 | Red urine (8/8) | 0.15 ± 0.06 |  | > 1000 |  | > 1000 | 1.87 |  |  |  | 112 | Adverse reactions: Muscle twitching (incidence) [3]: Muscle twitching (4/8),; Corticosterone as an indicator to determine the presence of inhibition ([4]; H295R, Table C3): 0; Cortisol as an indicator to determine the presence of inhibition ([5]; H295R, Table C3): 0; Onset time [7, 12]: 3 to 4 min; Recovery time after stopping infusion [7, 12]: 8 to 14 min; Types and incidence of adverse reactions [7, 12]: Tremor (6/6)
C=CC#CC(C)(C)OC(=O)c1cncn1[C@H](C)c1ccccc1 [Compound D37] | 0.5 to 1 | >13 | >10 | 3.09 ± 2.03 | Red urine (8/8) | 0.24 ± 0.11 | 0 | > 1000 | 0 | > 1000 | 2.75 | 2 to 3 | 12 to 18 | Tremor (4/6) | 165 | 
COCC1(COC(=O)c2cncn2[C@H](C)c2ccccc2)CCC1 [Compound A11] | 0.01 to 0.1 | >12 | >1 | 3.81 ± 1.49 | Red urine (8/8) | 0.21 ± 0.10 |  | > 10000 |  | > 10000 | 3.75 |  |  |  | 225 | Corticosterone as an indicator to determine the presence of inhibition ([4]; H295R, Table A3): 0; Cortisol as an indicator to determine the presence of inhibition ([5]; H295R, Table A3): 0; Recovery time after stopping infusion ([7]; after 1 hour infusion at 2×MIR): 14 to 18 min; Adverse reactions: Tremor (incidence) [7]: Tremor (5/6); Onset time [7, 11]: 3 to 4 min
C[C@H](c1ccccc1)n1cnc(F)c1C(=O)OCC1CC1 [Compound E8] |  | >22 | >4 | 1.90 ± 0.82 | (8/8) | 0.38 ± 0.06 |  |  |  |  | 2.00 |  |  |  | 120 | ED50 (mg/kg) [1]: B (B means that the measured ED50 is in the range of 0.10-0.50 mg/kg (excluding 0.10 mg/kg, including 0.50 mg/kg).); Sedation duration (mg/kg) [3]: 7.12 ± 0.81; Corticosterone as an indicator to determine the presence of inhibition [4, 13]: 0; EC50 [4, 13]: > 100 nM; Cortisol as an indicator to determine the presence of inhibition [5, 13]: 0; EC50 [5, 13]: > 100 nM; Onset time [7, 14]: 3 to 4 min; Recovery time after stopping infusion [7, 14]: 12 to 14 min; Types and incidence of adverse reactions [7, 14]: Tremor (1/6), Tongue stretching (4/6)
CSCCOC(=O)c1cncn1[C@H](C)c1ccccc1 [Compound C27] | 0.5 to 1 | >11 | >9 | 3.06 ± 1.50 | Red urine (8/8) | 0.12 ± 0.07 |  | > 1000 |  | > 1000 | 3.1 |  |  |  | 186 | Corticosterone as an indicator to determine the presence of inhibition ([4]; H295R, Table C3): 0; Cortisol as an indicator to determine the presence of inhibition ([5]; H295R, Table C3): 0; Onset time [7, 12]: 3 to 4 min; Recovery time after stopping infusion [7, 12]: 10 to 11 min; Types and incidence of adverse reactions [7, 12]: Tremor (2/6)
